Measured values as given in PMC10503991, “Synthesis of some new isoxazole compounds and their biological tyrosinase and antioxidant activities” (Turkish Journal of Chemistry, 2021).
Blank lines part the entries; values can stand above or below the compound they belong to.

Assays:
[1] = DPPH free radical scavenging method; details: concentration causing 50% scavenging of DPPH radical; Trolox standard
Experimental: The DPPH free radical scavenging activities of 8–14 compounds were determined using the method described before. Alcoholic solution of DPPH (1 mL, […] in methanol) was mixed with 8–14 compound solutions prepared in DMSO. […] DPPH gives a purple color in methanol. This color is decayed by antioxidant. So reduction in the absorbance indicates DPPH• scavenging activity. Trolox was used as standard radical scavenger and values were expressed as SC50 (μg compound per mL), the concentration of the samples that causes 50% scavenging of DPPH radical.

[2] = Cupric ion reducing (CUPRAC) method; details: for CUPRAC (mg TEAC/mg): trolox equivalents per mg compound
Experimental: The capacity of 8–14 compounds to reduce cupric ions was established as it was described before. A reaction mixture was prepared by mixing a volume of CuCl2 (0.250 mL, 10 mM), neocuproine (0.250 mL, 7.5 mM in ethanol) and NH4Ac buffer (0.250 mL, 1 M, pH 7.0) with standard/compound solutions at different concentrations. SA blank was prepared by adding sample solution to premixed reaction mixture CuCl2. The absorbances of the blank and sample were read at 450 nm after a 30-min incubation at room temperature. The absorbance of the blank was subtracted from that of the sample. CUPRAC activity was expressed as equivalents of trolox (mg TEAC/mg compound).

mushroom tyrosinase = mushroom tyrosinase (Agaricus bisporus, UniProt C7FF04); experiment: Mushroom tyrosinase inhibition assay (L-DOPA substrate, 475 nm); type: biochemical; details: for IC50 values for the tyrosinase enzyme inhibition: abstract, unit not given; for Tyrosinase (IC50 μg/mL): mushroom tyrosinase, L-DOPA substrate, kojic acid positive control
Sequence of mushroom tyrosinase (C7FF04 1-392): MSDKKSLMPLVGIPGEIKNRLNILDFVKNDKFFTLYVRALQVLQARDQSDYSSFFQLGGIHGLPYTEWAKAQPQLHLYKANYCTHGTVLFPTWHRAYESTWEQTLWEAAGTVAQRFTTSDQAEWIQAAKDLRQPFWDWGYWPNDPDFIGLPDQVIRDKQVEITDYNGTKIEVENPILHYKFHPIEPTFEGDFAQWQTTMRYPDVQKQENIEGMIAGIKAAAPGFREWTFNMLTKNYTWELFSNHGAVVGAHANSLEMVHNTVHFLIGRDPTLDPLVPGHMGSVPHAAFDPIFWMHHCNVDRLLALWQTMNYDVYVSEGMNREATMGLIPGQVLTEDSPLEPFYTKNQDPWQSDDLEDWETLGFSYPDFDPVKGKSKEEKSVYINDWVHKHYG
Experimental: The mushroom tyrosinase inhibition assay was carried out according previously reported method. […] After 10 min of a preincubation period at room temperature, the enzymatic reaction was initiated with the addition of L-DOPA (3 mM, 20 μL) as substrate. The absorbance was read at 475 nm. The compound concentration giving 50% inhibition of tyrosinase activity was determined by interpolation of concentration-response curves. […] The extract concentration giving 50% (IC50) of the original tyrosinase activity was determined.
The position, number and nature of the substituent on benzene and pyridine rings were varied in order to identify the most appropriate group.

[3] = design: method as in PMID 33763478; details: comparator in literature study; cited from earlier work

SMILES: COc1ccccc1-c1cc(-c2ccc(OC)c(OC)c2OC)on1 [Compound 8, 3-(2-methoxyphenyl)-5-(2,3,4-trimethoxyphenyl)isoxazole]
DPPH, SC50 [1]: 61.42 ± 1.41 µg/mL | melting point: 102 to 103 °C | CUPRAC (mg TEAC/mg) [2]: 1.156 ± 0.026 mg TEAC/mg

SMILES: Oc1cccc(-c2cc(-c3ccccc3)on2)c1 [Compound 10, 3-(3-hydroxyphenyl)-5-(phenyl)isoxazole]
DPPH, SC50 [1]: 65.65 ± 1.69 µg/mL | IC50 values for the tyrosinase enzyme inhibition (mushroom tyrosinase): did not show any inhibition effect | Tyrosinase (IC50 μg/mL) (mushroom tyrosinase): No inhibition | melting point: 230 to 231 °C | CUPRAC (mg TEAC/mg) [2]: 0.789 ± 0.009 mg TEAC/mg

SMILES: COc1cccc(-c2cc(-c3ccccn3)on2)c1 [Compound 13, 3-(3-methoxyphenyl)-5-(2-pyridinyl)isoxazole]
DPPH, SC50 [1]: 57.32 ± 2.12 µg/mL | CUPRAC values ([2]; as printed in the results text b37): 1.25 ± 0.019 mg TEAC/mg | CUPRAC (mg TEAC/mg) [2]: 1.245 ± 0.019 mg TEAC/mg

SMILES: COc1ccc(-c2cc(-c3ccncc3)on2)cc1 [Compound 14, 3-(4-methoxyphenyl)-5-(4-pyridinyl)isoxazole]
DPPH, SC50 [1]: 54.41 ± 2.87 µg/mL | IC50 values for the tyrosinase enzyme inhibition (mushroom tyrosinase): did not show any inhibition effect | Tyrosinase (IC50 μg/mL) (mushroom tyrosinase): No inhibition | melting point: 141 to 143 °C | CUPRAC (mg TEAC/mg) [2]: 1.189 ± 0.021 mg TEAC/mg

SMILES: Cc1c(C)c2c(c(C)c1O)CCC(C)(C(=O)O)O2 (centres unmarked) [Trolox, reference compound]
DPPH, SC50 [1]: 5.56 ± 0.85 µg/mL | antioxidant activity in DPPH assay IC50 [3]: 2.75 µg/mL

Continued, in another order:

IC50 values for the tyrosinase enzyme inhibition (mushroom tyrosinase): did not show any inhibition effect | Tyrosinase (IC50 μg/mL) (mushroom tyrosinase): No inhibition | melting point: 93 to 94 °C
SMILES: COc1ccc(-c2cc(-c3ccc(OC)cc3OC)on2)cc1 [Compound 9, 3-(4-methoxyphenyl)-5-(2,4-dimethoxyphenyl)isoxazole]
DPPH, SC50 [1]: 71.96 ± 2.36 µg/mL | CUPRAC (mg TEAC/mg) [2]: 0.856 ± 0.013 mg TEAC/mg

melting point: 168 to 169 °C
SMILES: COc1ccc(-c2cc(-c3cccc(O)c3)no2)c(OC)c1 [Compound 11, 3-(3-hydroxyphenyl)-5-(2,4-dimethoxyphenyl)isoxazole]
DPPH, SC50 [1]: 81.52 ± 3.66 µg/mL | CUPRAC (mg TEAC/mg) [2]: 0.584 ± 0.011 mg TEAC/mg

melting point: 176 to 178 °C
SMILES: COc1ccc(OC)c(-c2cc(-c3ccc(O)cc3)no2)c1 [Compound 12, 3-(4-hydroxyphenyl)-5-(2,5-dimethoxyphenyl)isoxazole]
DPPH, SC50 [1]: 40.21 ± 2.71 µg/mL | CUPRAC (mg TEAC/mg) [2]: 1.233 ± 0.015 mg TEAC/mg
